Test results reported in patent US20260109870A1, “PEPTIDE-BASED NON-CRYSTALLINE MATERIALS AND COMPOSITIONS AND PROCESSES FOR OBTAINING SAME” (Ramot at Tel-Aviv University Ltd., priority 2022, published 2026).
Residues, ends and D or L forms follow the SMILES beside them.

Assay: not given
Conditions: in water; marked (literature); cited from earlier work

| SMILES | solubility |
| --- | --- |
| N[C@@H](Cc1ccccc1)C(=O)O [F, phenylalanine] | 29.6 (literature) milligram/milliliter |

Assay: Solubility limit in water (gradual water addition, vortex, light microscopy)
Conditions: not given

| solubility [mg/mL] | SMILES |
| --- | --- |
| > 1000 | N[C@@H](Cc1ccccc1)C(=O)N[C@@H](Cc1ccc(O)cc1)C(=O)N[C@@H](Cc1ccc(O)cc1)C(=O)O [FYY] (H-Phe-Tyr-Tyr-OH) |
| < 5 | N[C@@H](Cc1ccccc1)C(=O)N[C@@H](Cc1ccc(O)cc1)C(=O)N[C@@H](Cc1ccccc1)C(=O)O [FYF, reference compound] (H-Phe-Tyr-Phe-OH) |
| > 1000 | N[C@@H](Cc1ccccc1)C(=O)N[C@@H](Cc1ccc(O)cc1)C(=O)O [FY] (H-Phe-Tyr-OH) |
| > 250 | N[C@@H](Cc1ccccc1)C(=O)N[C@@H](Cc1ccccc1)C(=O)N[C@@H](Cc1ccc(O)cc1)C(=O)O [FFY] (H-Phe-Phe-Tyr-OH) |
| < 1 | N[C@@H](Cc1ccccc1)C(=O)N[C@@H](Cc1ccccc1)C(=O)N[C@@H](Cc1ccccc1)C(=O)O [FFF, reference compound] (H-Phe-Phe-Phe-OH) |

| SMILES | solubility [mg/mL] |
| --- | --- |
| N[C@@H](Cc1ccc(O)cc1)C(=O)N[C@@H](Cc1ccc(O)cc1)C(=O)N[C@@H](Cc1ccc(O)cc1)C(=O)O [YYY, Tyr-Tyr-Tyr] (H-Tyr-Tyr-Tyr-OH) | > 1000 |
| N[C@@H](Cc1ccc(O)cc1)C(=O)N[C@@H](Cc1ccccc1)C(=O)N[C@@H](Cc1ccccc1)C(=O)O [YFF] (H-Tyr-Phe-Phe-OH) | > 250 |
| N[C@@H](Cc1ccc(O)cc1)C(=O)N[C@@H](Cc1ccccc1)C(=O)N[C@@H](Cc1ccc(O)cc1)C(=O)O [YFY] (H-Tyr-Phe-Tyr-OH) | > 1000 |
| N[C@@H](Cc1ccc(O)cc1)C(=O)N[C@@H](Cc1ccc(O)cc1)C(=O)N[C@@H](Cc1ccccc1)C(=O)O [YYF] (H-Tyr-Tyr-Phe-OH) | > 1000 |

Assay: physchem
Conditions: water
Method: Each amino acid or peptide was weighed. Water was gradually added at room temperature and the solution was vortexed. After each addition of water, the solution was sampled and evaluated under light microscopy; this process was repeated until no visible particles were detected and the concentration was calculated and determined as the solubility limit of the peptide in water.

| solubility [mg/mL] | SMILES |
| --- | --- |
| > 1000 | N[C@@H](Cc1ccc(O)cc1)C(=O)N[C@@H](Cc1ccc(O)cc1)C(=O)O [YY] (H-Tyr-Tyr-OH) |
| > 1000 | N[C@@H](Cc1ccc(O)cc1)C(=O)N[C@@H](Cc1ccccc1)C(=O)O [YF] (H-Tyr-Phe-OH) |
